# Assay results from EPA's ToxValDB 9.5.
# Key:
# Rattus norvegicus = conditions: for LD50: acute
# [1] = subchronic, duration: 13 weeks, oral, gavage
# [2] = subchronic, duration: 13 weeks, oral, gavage, M/F, Crj:CD, no effects
structure (smiles),measurement,setting,value
O=C1CCCCCN1 [Caprolactam],NOEL,"Rattus norvegicus; subchronic, duration: 90 days, oral, diet",750 mg/kg-day
O=C([O-])c1ccccn1.O=C([O-])c1ccccn1.O=C([O-])c1ccccn1.[Cr+3] [Chromium picolinate],NOAEL,"Rattus norvegicus; chronic, duration: 2 years, M/F, Fischer 344, no effects",2400 mg/kg-day
"CC(/C=C/C=C(C)/C=C/C(=O)[O-])=C\C=C\C=C(C)\C=C\C=C(C)\C=C\C(=O)[O-].[K+].[K+] [Dipotassium 6,6'-diapo-psi,psi-carotenedioate]",NOAEL,"Rattus norvegicus; subchronic, duration: 13 weeks, oral, diet, M/F, Sprague-Dawley, clinical chemistry",30 mg/kg-day
CCCSSSCCC [Dipropyl trisulfide],NOEL,Rattus norvegicus; [1],4.8 mg/kg-day
CCOC(=O)c1ccccc1O [Ethyl salicylate],NOAEL,"Rattus norvegicus; chronic, duration: 2 years, oral, growth",50 mg/kg-day
CCOC(C)(C)C [Ethyl t-butyl ether],NOAEL,"Rattus norvegicus; chronic, duration: 6 months, oral, gavage, M/F, Sprague-Dawley, organ weight",100 mg/kg-day
CCOC(=O)c1ccc(O)cc1 [Ethylparaben],NOAEL,"Rattus norvegicus; subchronic, duration: 8 weeks, M, Wistar, no effects",1040 mg/kg-day
O=C(O)c1cc(O)c(O)c(O)c1 [Gallic acid],NOAEL,"Rattus norvegicus; subchronic, duration: 13 weeks, oral, M/F, organ weight",119 mg/kg-day
OCc1c[nH]c2ccccc12 [Indole-3-carbinol],NOAEL,"Rattus norvegicus; chronic, duration: 37 weeks, oral, diet, M, no effects",50 mg/kg-day
NCCS(=O)(=O)[O-].NCCS(=O)(=O)[O-].[Fe+2] [Iron(II) taurate],NOAEL,Rattus norvegicus; [2],1000 mg/kg-day
NC(N)=NCCC[C@H](N)C(=O)O [L-Arginine],NOAEL,"Rattus norvegicus; subchronic, duration: 13 weeks, M/F, Crj:CD, no effects",3.13 mg/kg-day
CC(=O)N[C@H]1[C@H](O[C@H]2[C@@H](O)[C@@H](CO)O[C@@H](O[C@H]3[C@H](O)[C@@H](O)C(O)O[C@@H]3CO)[C@@H]2O)O[C@H](CO)[C@@H](O)[C@@H]1O[C@@H]1O[C@H](CO)[C@H](O)[C@H](O)[C@H]1O (some centres not stated) [Lacto-N-tetraose],NOAEL,"Rattus norvegicus; subchronic, duration: 90 days, oral, M/F, Wistar",5000 mg/kg-day
C=C(C)C1CC=C(C)CC1 (configuration not stated) [Limonene],NOAEL,"Rattus norvegicus; chronic, duration: 103 weeks, oral, gavage, F, mortality",215 mg/kg-day
same,NOEL,"Rattus norvegicus; subchronic, duration: 13 weeks, histopathology: nonneoplastic",10 mg/kg-day
CC1=C[C@H](O)CC(C)(C)[C@H]1/C=C/C(C)=C/C=C/C(C)=C/C=C/C=C(C)/C=C/C=C(C)/C=C/C1=C(C)C[C@@H](O)CC1(C)C [Lutein A],LEL,"Rattus norvegicus; subchronic, duration: 13 weeks, oral, no effects",260 mg/kg-day
same,NOAEL,"Rattus norvegicus; subchronic, duration: 90 days, oral, diet, M/F, Wistar, no effects",200 mg/kg-day
Cc1cccc(C)c1N(Cn1cccn1)C(=O)CCl [Metazachlor],NOAEL,"Rattus norvegicus; chronic, duration: 2 years, organ weight",8.5 mg/kg-day
same,NOAEL,"Rattus norvegicus; developmental, development",50 mg/kg-day
same,NOAEL,"Rattus norvegicus; subchronic, duration: 90 days, oral, organ weight",21 mg/kg-day
CCCCCCCCCCCC(=O)N[C@@H](CCCN=C(N)N)C(=O)OCC [N alpha-Lauroyl-L-arginine ethyl ester],NOAEL,"Rattus norvegicus; subchronic, duration: 13 weeks, oral, M/F, Sprague-Dawley, clinical chemistry",47 mg/kg-day
CCNC(=O)C1CC(C)CCC1C(C)C (configuration not stated) [N-Ethyl-2-(isopropyl)-5-methylcyclohexanecarboxamide],NOEL,"Rattus norvegicus; short-term, duration: 28 days, oral, gavage, M/F, Crj:CD",8 mg/kg-day
COC(=O)[C@H](Cc1ccccc1)NC(=O)[C@H](CC(=O)O)NCCC(C)(C)C [Neotame],NOAEL,"Canidae; chronic, duration: 52 weeks, oral, diet, M/F, Beagle, clinical chemistry",200 mg/kg-day
NC[C@@H]1O[C@H](O[C@H]2[C@@H](O)[C@H](O[C@@H]3[C@@H](O)[C@H](N)C[C@H](N)[C@H]3O[C@H]3O[C@H](CO)[C@@H](O)[C@H](O)[C@H]3N)O[C@@H]2CO)[C@H](N)[C@@H](O)[C@@H]1O.O=S(=O)(O)O [Paromomycin sulfate],NOEL,"Canidae; chronic, oral, Dog Other",3.4 mg/kg-day
Oc1ccccc1 [Phenol],NOAEL,"Rattus norvegicus; developmental, duration: 10 days, oral, gavage, F, Sprague-Dawley, development",120 mg/kg-day
same,NOAEL,"Rattus norvegicus; reproduction developmental, duration: 10 days, oral, gavage, F, body weight",60 mg/kg-day
NCCCCN [Putrescine],LD50,"Rattus norvegicus; oral, F, mortality",463 mg/kg
"CSc1nccnc1C(C)C [Pyrazine, 2-(1-methylethyl)-3-(methylthio)-]",NOAEL,"Rattus norvegicus; subchronic, duration: 13 weeks, oral, diet, M/F, no effects",1.63 mg/kg-day
Cc1cc2nc3c(=O)[nH]c(=O)nc-3n(C[C@H](O)[C@H](O)[C@H](O)CO)c2cc1C [Riboflavin],NOAEL,"Rattus norvegicus; subchronic, duration: 90 days, M/F, Wistar, no effects",160 mg/kg-day
CC(=O)SCc1ccco1 [S-Furfuryl thioacetate],NOAEL,"Rattus norvegicus; subchronic, duration: 90 days, oral, gavage, M/F, body weight",3 mg/kg-day
CC1=C(C=O)C(C)(C)CC=C1 [Safranal],LEL,"Canidae; subchronic, duration: 90 days, Dog Other, no effects",120 mg/kg-day
same,NOEL,"Rattus norvegicus; subchronic, duration: 90 days",10 mg/kg-day
same,LEL,"Rattus norvegicus; subchronic, duration: 90 days, oral, gavage, F, no effects",120 mg/kg-day
[Cl][Sn][Cl] [Stannous chloride],NOAEL,"Rattus norvegicus; subchronic, duration: 90 days, oral, diet, M/F, Wistar, body weight",63 mg/kg-day
"CC1=NCCS1 [Thiazole, 4,5-dihydro-2-methyl-]",NOAEL,"Rattus norvegicus; subchronic, duration: 90 days",1.8 mg/kg-day
same,NOAEL,"Rattus norvegicus; subchronic, duration: 90 days, oral, diet, M/F, no effects",1.8 mg/kg-day
"CC(C)(C)c1ccc(OP(Oc2ccc(C(C)(C)C)cc2C(C)(C)C)Oc2ccc(C(C)(C)C)cc2C(C)(C)C)c(C(C)(C)C)c1 [Tris(2,4-di-tert-butylphenyl) phosphite]",NOAEL,"Rattus norvegicus; chronic, duration: 2 years, oral, no effects",58 mg/kg-day
NC(N)=O [Urea],LD50,"Rattus norvegicus; oral, mortality",14300 mg/kg-day
same,NOEL,"Rattus norvegicus; reproduction developmental, reproduction",2250 mg/kg-day
CC1=C(/C=C/C(C)=C/C=C/C(C)=C/C=C/C=C(C)/C=C/C=C(C)/C=C/C2=C(C)C[C@@H](O)CC2(C)C)C(C)(C)C[C@H](O)C1 [Zeaxanthin],NOAEL,"Rattus norvegicus; reproduction developmental, oral, M/F, reproduction",150 mg/kg-day
CC(O)c1ccccc1 (stereo not drawn) [alpha-Methylbenzyl alcohol],LOAEL,Rattus norvegicus; [1],93 mg/kg-day
Cc1c(C)c2c(c(C)c1OC(=O)CCC(=O)O)CC[C@@](C)(CCC[C@H](C)CCC[C@H](C)CCCC(C)C)O2 [d-alpha-Tocopheryl succinate],NOAEL,"Rattus norvegicus; subchronic, duration: 90 days, clinical chemistry",265 mg/kg-day
NCCS(=O)(=O)O [l-Taurine],NOAEL,Rattus norvegicus; [2],1000 mg/kg-day
